Columns and labels:
[1] = tested on: MDA-MB-231; assay: Human apoptosis proteome profiler array, MDA-MB-231; assay type: cell-based; conditions: for HIF-1α expression: MDA-MB-231, compound at IC50
Description: (§1) MDA-MB-231 cells were incubated in the presence or absence of NRPa-47 or NRPa-48 compounds (IC50) and protein lysates were prepared and quantified as previously described. Biochemical signaling detection was evaluated by using human proteome profiler array (human phosphokinase array and human apoptosis array) according to the manufacturer's instructions (R&D systems, France). Briefly, capture and control antibodies were spotted in duplicate on nitrocellulose membranes. Cellular extracts were incubated overnight on membrane, washed to remove unbound proteins, followed by incubation with a cocktail of biotinylated detection antibodies. Streptavidin-HRP and chemiluminescent detection reagents were applied, and the signal intensity corresponding to the amount of protein bound was measured at each capture spot using ImageJ software.

[2] = tested on: VEGF-A165 mRNA; assay: RT-PCR of VEGF-A165 mRNA in MDA-MB-231; assay type: cell-based, human; conditions: MDA-MB-231, time dependent, maximum effect at 60 minutes
Description: (§2) MDA-MB-231 RNA was extracted with NucleoSpinRNA II kit (Macherey-Nagel, France) and quantified using Nanodrop (ND-1000 spectrophotometer). 1 μg of each RNA sample was reverse-transcripted into cDNA using iScript cDNA Synthesis Kit (Bio-Rad, France) following the manufacturer's instructions. PCR amplification was performed in reaction mixture (25 μL) containing 200 μM of each dNTP, 1 μg of cDNA, 1 μM of primers and 0.625 U of GoTaq DNA Polymerase (Promega, France) with 45 s of denaturation at 95° C., 45 s of annealing at 60° C. and 1 min of extension at 72° C. for 30 cycles. PCR products were separated by 1% agarose gel electrophoresis, stained with ethidium bromide (Sigma, Germany) and analyzed using Gel Doc 2000 System (Bio-Rad, France).

[3] = tested on: p38α; assay: Human phosphokinase proteome profiler array, MDA-MB-231; assay type: cell-based; conditions: MDA-MB-231, compound at IC50, 10 and 60 minutes
Description: as §1

[4] = tested on: p38β/p38γ/p38δ; assay: as above; assay type: cell-based; conditions: MDA-MB-231, compound at IC50, 10 and 60 minutes
Description: as §1

[5] = tested on: ERK-1/-2; assay: as above; assay type: cell-based; conditions: MDA-MB-231, compound at IC50, 10 and 60 minutes
Description: as §1

[6] = tested on: AKT-1/-2/-3/-pan; assay: as above; assay type: cell-based; conditions: MDA-MB-231, compound at IC50, 10 and 60 minutes
Description: as §1

[7] = tested on: JNK-1/-2/-3/-pan; assay: as above; assay type: cell-based; conditions: MDA-MB-231, compound at IC50, 10 and 60 minutes
Description: as §1

[8] = biological target: T1, VEGF-A165/NRP-1 (Homo sapiens, UniProt O14786); conditions: previously described [15]; cited from earlier work
T1 sequence (O14786 22-856 limits assumed): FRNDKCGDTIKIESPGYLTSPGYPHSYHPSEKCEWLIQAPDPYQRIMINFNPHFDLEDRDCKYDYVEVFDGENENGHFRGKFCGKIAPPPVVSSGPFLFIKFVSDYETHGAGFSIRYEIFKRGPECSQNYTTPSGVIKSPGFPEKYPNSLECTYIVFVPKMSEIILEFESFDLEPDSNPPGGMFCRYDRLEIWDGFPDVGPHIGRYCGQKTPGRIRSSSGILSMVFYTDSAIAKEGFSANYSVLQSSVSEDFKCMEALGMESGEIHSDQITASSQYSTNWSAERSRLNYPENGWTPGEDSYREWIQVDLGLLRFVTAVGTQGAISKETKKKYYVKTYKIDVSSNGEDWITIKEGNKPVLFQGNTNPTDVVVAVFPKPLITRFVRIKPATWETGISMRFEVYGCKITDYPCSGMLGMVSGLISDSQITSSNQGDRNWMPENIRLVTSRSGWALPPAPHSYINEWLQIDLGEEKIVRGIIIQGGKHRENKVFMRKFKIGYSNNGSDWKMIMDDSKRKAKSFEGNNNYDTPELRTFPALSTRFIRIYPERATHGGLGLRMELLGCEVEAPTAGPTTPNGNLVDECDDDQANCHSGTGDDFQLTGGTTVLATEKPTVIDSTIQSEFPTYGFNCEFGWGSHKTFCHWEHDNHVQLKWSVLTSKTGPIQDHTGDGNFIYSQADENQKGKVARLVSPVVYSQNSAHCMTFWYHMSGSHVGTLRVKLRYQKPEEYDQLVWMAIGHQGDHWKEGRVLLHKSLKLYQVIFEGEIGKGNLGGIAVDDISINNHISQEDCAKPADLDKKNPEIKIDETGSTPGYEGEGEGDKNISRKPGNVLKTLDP

[9] = biological target: selected panel of 40 protein kinases; assay: Protein kinase profiling (Eurofins); assay type: biochemical; conditions: 1 μM of each NRPa, relative to DMSO control
Description: NRPa-47 and NRPa-48 specificity profiling assays were carried out at Eurofins Pharma Discovery Services (Dundee, UK) for Protein Kinase Profiling against a selected panel of 40 protein kinases. Results of protein kinases assayed at 1 μM of each NRPa are presented as a percentage of kinase activity in DMSO control reactions.

[10] = tested on: HIF-1α mRNA; assay: RT-PCR of HIF-1α mRNA in MDA-MB-231; assay type: cell-based, human; conditions: MDA-MB-231, time dependent, maximum effect at 60 minutes
Description: as §2

[11] = tested on: MDA-MB-231; conditions: read-out: half maximal inhibitory anti-proliferative concentration (IC50); MDA-MB-231, previously reported; cited from earlier work
[12] = tested on: RSK-1/RSK-2, MSK-2, HSP-27, GSK-3, p70S6K; assay: Human phosphokinase proteome profiler array, MDA-MB-231: downstream kinase substrates; assay type: cell-based; conditions: MDA-MB-231, compound at IC50, 10 and 60 minutes
Description: as §1

[13] = tested on: MDA-MB-231-xenografted NOG mice; assay: In vivo xenografted-tumor mouse model
Description: Protocol was approved by the INSERM Institutional Care and Use Committee according to the European Communities Council Directive. NOD/scid/IL-2Rγ−/− (NOG) female mice were bred and housed in pathogen-free conditions in accordance with the Federation of European Animal Associations (FELSA) guidelines. […]. […] Tumor growth and body weight were measured every three days during the treatment. Mice were weighed regularly to assess the toxicity of the treatment and the tumors were measured with calipers (width×width×length×Pi/6) to determine growth.

[14] = MDA-MB-231, compound at IC50, 60 minutes and 48 hours

SMILES: Cc1ccc(-c2nc3ccccc3[nH]2)cc1NC(=S)NC(=O)c1ccc2c(c1)OCCO2 [NRPa-47, N-[5-(1H-benzimidazol-2-yl)-2-methylphenyl]-N′-(2,3-dihydro-1,4-benzodioxin-6-ylcarbonyl)thiourea]
- HIF-1α expression [1]: inhibit HIF-1α expression
- anti-apoptotic proteins (Bcl-2, Bcl-x, cIAP-1, cIAP-2, XIAP, Survivin, Livin, Clusterin) and heat shock proteins (HSP-27/-60/-70) level [1, 14]: significantly reduced
- caspase-3 cleavage [1, 14]: induction
- catalase (oxidative stress) [1, 14]: catalase induction
- cell cycle protein expression (p21, p27) and phosphorylation of Rad-17 [1, 14]: reduction
- heme oxygenase HO-1/HMOX1/HSP32 and HO-2/HMOX2 expression [1, 14]: both reduced
- p53 phosphorylation sites [1, 14]: inhibited
- pro-apoptotic proteins (Bad, Bax, SMAC/Diablo, HTRA2/Omi, cytochrome c) level [1, 14]: rapid decrease
- VEGF-A165 mRNA expression [2]: reduced
- p38α phosphorylation [3]: significantly decreased
- p38β/p38γ/p38δ phosphorylation [4]: no significant variation
- ERK-1/-2 phosphorylation [5]: significant hyper-phosphorylations
- AKT-1/-2/-3/-pan phosphorylation [6]: up-regulated
- JNK-1/-2/-3/-pan phosphorylation [7]: significant hyper-phosphorylations
- VEGF-A165/NRP-1 binding [8]: inhibited VEGF-A165/NRP-1 binding
- kinase activity of 40-selected kinases in vitro [9]: None of these were significantly affected
- HIF-1α mRNA expression [10]: reduced
- IC50 [11]: 0.6 µM
- GSK-3 phosphorylation [12]: affected
- HSP27 phosphorylation [12]: dephosphorylated
- MSK2 phosphorylation [12]: dephosphorylated
- RSK-1 phosphorylation [12]: remained unchanged
- RSK-2 phosphorylation [12]: increase in phosphorylation
- p70S6K phosphorylation [12]: up-regulated

SMILES: O=C(NC(=S)Nc1cccc(-c2nc3ccccc3[nH]2)c1)c1ccc2c(c1)OCCO2 [NRPa-48, N-[3-(1H-benzimidazol-2-yl)phenyl]-N′-(2,3-dihydro-1,4-benzodioxin-6-ylcarbonyl)thiourea]
- HIF-1α expression [1]: inhibit HIF-1α expression
- PON-2 level [1, 14]: remained unchanged
- anti-apoptotic proteins (Bcl-2, Bcl-x, cIAP-1, cIAP-2, XIAP, Survivin, Livin, Clusterin) and heat shock proteins (HSP-27/-60/-70) level [1, 14]: down-modulated
- caspase-3 cleavage [1, 14]: induction
- catalase (oxidative stress) [1, 14]: high level of catalase
- cell cycle protein expression (p21, p27) and phosphorylation of Rad-17 [1, 14]: reduction
- heme oxygenase HO-1/HMOX1/HSP32 and HO-2/HMOX2 expression [1, 14]: both reduced
- p53 phosphorylation sites [1, 14]: inhibited
- pro-apoptotic proteins (Bad, Bax, SMAC/Diablo, HTRA2/Omi, cytochrome c) level [1, 14]: significantly decreased
- body weight of treated animals ([13]; 50 mg/kg by force-feeding, three times a week): did not show any loss of weight
- treated mice alive at the end of treatment ([13]; 50 mg/kg force-feeding): 62%
- tumor size reduction compared to the reference group ([13]; 50 mg/kg force-feeding, Day-38 (21 days after starting treatment)): approximately 29%
- tumor size reduction ([13]; 50 mg/kg force-feeding, Day-45): 34%
- median survival ([13]; 50 mg/kg force-feeding, control group 35 days): over 56 days
- p38α phosphorylation [3]: significantly inhibited
- p38β/p38γ/p38δ phosphorylation [4]: significantly inhibited
- ERK-1/-2 phosphorylation [5]: significantly inhibited
- AKT-1/-2/-3/-pan phosphorylation [6]: inhibited from 10 minutes until 60 minutes
- JNK-1/-2/-3/-pan phosphorylation [7]: significantly inhibited
- kinase activity of 40-selected kinases in vitro [9]: None of these were significantly affected
- IC50 [11]: 0.4 µM
- GSK-3 phosphorylation [12]: inhibited in a time dependent manner
- HSP27 phosphorylation [12]: inhibited in a time dependent manner
- MSK2 phosphorylation [12]: inhibited in a time dependent manner
- RSK-1 phosphorylation [12]: inhibited in a time dependent manner
- RSK-2 phosphorylation [12]: inhibited in a time dependent manner
